Our source for the IC50 values is patent US10696693B2, “Fused imidazole derivatives as TGF-beta inhibitors” (Rigel Pharmaceuticals, Inc., priority 2014, dated 2020).

One assay relates to GDF8. The experiment in a line: AlphaScreen SureFire p-SMAD3 (Ser423/425) assay, GDF8-stimulated cells. The format is cell-based. Conditions: Mus musculus. The gist of the method:
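Lysate (5 μL) went into 384-well shallow plates with 5 μL of Reaction Buffer, Activation Buffer and AlphaScreen Acceptor bead mix. Plates were sealed, kept dark and shaken for 2 hours at room temperature. Donor beads in dilution buffer (2 μL) were added for another 1½ hours, and p-SMAD3 signal was read on a Synergy-4 or Enspire reader.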
A general note: Alpha assays give light when donor and acceptor beads are brought close together.

A further assay concerns TGF-β. Put plainly: AlphaScreen SureFire p-SMAD3 (Ser423/425) assay, TGF-β-stimulated cells. The format is cell-based. Conditions: Mus musculus. The gist of the method: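 The p-SMAD-3 (Ser423/425) SureFire assay measured phosphorylation of endogenous SMAD-3 in cell lysates. Cells were plated overnight in collagen-coated plates, exposed to three-fold serially diluted compounds for about 10 minutes, then stimulated with TGFβ. Lysates (5 μL) received acceptor bead mix for 2 hours, then donor beads for 1½ hours before AlphaScreen reading.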

Setting [1] is: MPC-11, p-SMAD3 (Ser423/425) AlphaScreen in cell lysate, MPC11, GDF8 stimulation, read-out: GDF8: inhibition of GDF8 signaling, GDF pSMAD (MPC11).
The mark [2] stands for this setting: p-SMAD3 (Ser423/425) AlphaScreen in cell lysate, MPC-11, TGF-β stimulation, read-out: TGF-β: inhibition of TGF-β signaling, TGF-β pSMAD (MPC-11).
The mark [3] stands for this setting: MPC-11, read-out: GDF8: inhibition of GDF8 signaling, GDF pSMAD (MPC11), p-SMAD3 (Ser423/425) AlphaScreen in cell lysate, GDF8 stimulation.
[4] abbreviates: MPC-11, read-out: TGF-β: inhibition of TGF-β signaling, TGF-β pSMAD (MPC-11), p-SMAD3 (Ser423/425) AlphaScreen in cell lysate, TGF-β stimulation.

pIC50: −log10 of the molar value. Read-outs that look alike come from different tables or passages of the source.

`Cc1cc(-c2nc3n(c2-c2ccc4ncsc4c2)CCC3)cc(C)c1F` [Compound 277, 6-(2-(4-fluoro-3,5-dimethylphenyl)-6,7-dihydro-5H-pyrrolo[1,2-a]imidazol-3-yl)benzo[d]thiazole]: the pIC50 with GDF8 (setting [1]) and in the assay on TGF-β (setting [2]) was below 6.00 in each case.
`Cc1cc(-c2nc3n(c2-c2ccc4nccnc4c2)CCC3)cc(C)c1F` [Compound 278, 6-(2-(4-fluoro-3,5-dimethylphenyl)-6,7-dihydro-5H-pyrrolo[1,2-a]imidazol-3-yl)quinoxaline]: the pIC50 in the assay on GDF8 (setting [1]) and in the assay with TGF-β (setting [2]) was below 6.00 each time.
As for `Cc1cc(-c2nc3n(c2-c2ccc4ncccc4c2)CCC3)cc(C)c1F` [Compound 279], the pIC50 in the assay on GDF8 (setting [1]) and in the assay on TGF-β (setting [2]) was below 6.00 each time.
With `Cc1c(F)ccc(-c2nc3n(c2-c2ccc4[nH]ncc4c2)CCC3)c1F` [Compound 280, 5-(2-(2,4-difluoro-3-methylphenyl)-6,7-dihydro-5H-pyrrolo[1,2-a]imidazol-3-yl)-1H-indazole], the pIC50 was 7.00 to 7.30 with GDF8 (setting [1]) and 6.00 to 7.00 in the assay on TGF-β (setting [2]).
As for `Cc1c(F)ccc(-c2nc3n(c2-c2ccc4ncsc4c2)CCC3)c1F` [Compound 281, 6-(2-(2,4-difluoro-3-methylphenyl)-6,7-dihydro-5H-pyrrolo[1,2-a]imidazol-3-yl)benzo[d]thiazol], the pIC50 in the assay on GDF8 (setting [1]) was 7.00 to 7.30; in the assay on TGF-β (setting [2]), 6.00 to 7.00.
`Cc1c(F)ccc(-c2nc3n(c2-c2ccc4nccnc4c2)CCC3)c1F` [Compound 282, 6-(2-(2,4-difluoro-3-methylphenyl)-6,7-dihydro-5H-pyrrolo[1,2-a]imidazol-3-yl)quinoxaline]: the pIC50 in the assay with GDF8 (setting [1]) and in the assay on TGF-β (setting [2]) was 6.00 to 7.00 in each case.
As for `Cc1c(F)ccc(-c2nc3n(c2-c2ccc4ncccc4c2)CCC3)c1F` [Compound 283, 6-(2-(2,4-difluoro-3-methylphenyl)-6,7-dihydro-5H-pyrrolo[1,2-a]imidazol-3-yl)quinoline], the values for the pIC50 in the assay with GDF8 (setting [1]) and with TGF-β (setting [2]) were 6.00 to 7.00 and below 6.00, respectively.
`Cc1cc(F)c(-c2nc3n(c2-c2ccc4[nH]ncc4c2)CCC3)cc1F` [Compound 284, 5-(2-(2,5-difluoro-4-methylphenyl)-6,7-dihydro-5H-pyrrolo[1,2-a]imidazol-3-yl)-1H-indazole]: the pIC50 with GDF8 (setting [3]) and with TGF-β (setting [4]) was below 6.00 in each case.
`Cc1cc(F)c(-c2nc3n(c2-c2ccc4ncsc4c2)CCC3)cc1F` [Compound 285, 6-(2-(2,5-difluoro-4-methylphenyl)-6,7-dihydro-5H-pyrrolo[1,2-a]imidazol-3-yl)benzo[d]thiazole]: the pIC50 in the assay with GDF8 (setting [1]) and in the assay with TGF-β (setting [2]) was below 6.00 throughout.
With `Cc1cc(F)c(-c2nc3n(c2-c2ccc4nccnc4c2)CCC3)cc1F` [Compound 286, 6-(2-(2,5-difluoro-4-methylphenyl)-6,7-dihydro-5H-pyrrolo[1,2-a]imidazol-3-yl)quinoxaline], the pIC50 in the assay with GDF8 (setting [3]) and in the assay with TGF-β (setting [4]) was below 6.00 throughout.
As for `Cc1cc(F)c(-c2nc3n(c2-c2ccc4ncccc4c2)CCC3)cc1F` [Compound 287, 6-(2-(2,5-difluoro-4-methylphenyl)-6,7-dihydro-5H-pyrrolo[1,2-a]imidazol-3-yl)quinoline], the pIC50 with GDF8 (setting [3]) and in the assay with TGF-β (setting [4]) was below 6.00 throughout.
`Fc1cc(Cl)c(-c2nc3n(c2-c2ccc4[nH]ncc4c2)CCC3)cc1F` [Compound 288, 5-(2-(2-chloro-4,5-difluorophenyl)-6,7-dihydro-5H-pyrrolo[1,2-a]imidazol-3-yl)-1H-indazole]: the pIC50 with GDF8 (setting [3]) is 6.00 to 7.00; in the assay on TGF-β (setting [4]), below 6.00.
Turning to `Fc1cc(Cl)c(-c2nc3n(c2-c2ccc4ncsc4c2)CCC3)cc1F` [Compound 289, 6-(2-(2-chloro-4,5-difluorophenyl)-6,7-dihydro-5H-pyrrolo[1,2-a]imidazol-3-yl)benzo[d]thiazole], the pIC50 in the assay on GDF8 (setting [1]) was above 7.30; in the assay on TGF-β (setting [2]), 6.00 to 7.00.
For `Fc1cc(Cl)c(-c2nc3n(c2-c2ccc4ncccc4c2)CCC3)cc1F` [Compound 290, 6-(2-(2-chloro-4,5-difluorophenyl)-6,7-dihydro-5H-pyrrolo[1,2-a]imidazol-3-yl)quinoline], in that order: 6.00 to 7.00 and below 6.00.
Turning to `Fc1cc(Cl)c(-c2nc3n(c2-c2ccc4nccnc4c2)CCC3)cc1F` [Compound 291, 6-(2-(2-chloro-4,5-difluorophenyl)-6,7-dihydro-5H-pyrrolo[1,2-a]imidazol-3-yl)quinoxaline], the pIC50 is 7.00 to 7.30 with GDF8 (setting [3]) and 6.00 to 7.00 in the assay on TGF-β (setting [4]).
As for `Cc1cc(F)ccc1-c1nc2n(c1-c1ccc3[nH]ncc3c1)CCC2` [Compound 292, 5-(2-(4-fluoro-2-methylphenyl)-6,7-dihydro-5H-pyrrolo[1,2-a]imidazol-3-yl)-1H-indazole], the pIC50 in the assay with GDF8 (setting [3]) and in the assay with TGF-β (setting [4]) was below 6.00 each time.
`Cc1cc(F)ccc1-c1nc2n(c1-c1ccc3ncsc3c1)CCC2` [Compound 293, 6-(2-(4-fluoro-2-methylphenyl)-6,7-dihydro-5H-pyrrolo[1,2-a]imidazol-3-yl)benzo[d]thiazole]: the pIC50 in the assay with GDF8 (setting [1]) and in the assay with TGF-β (setting [2]) was 6.00 to 7.00 each time.
As to `Cc1cc(F)ccc1-c1nc2n(c1-c1ccc3nccnc3c1)CCC2` [Compound 294, 6-(2-(4-fluoro-2-methylphenyl)-6,7-dihydro-5H-pyrrolo[1,2-a]imidazol-3-yl)quinoxaline], the pIC50 in the assay on GDF8 (setting [3]) and in the assay with TGF-β (setting [4]) was below 6.00 in each case.
Regarding `Cc1cc(F)ccc1-c1nc2n(c1-c1ccc3ncccc3c1)CCC2` [Compound 295, 6-(2-(4-fluoro-2-methylphenyl)-6,7-dihydro-5H-pyrrolo[1,2-a]imidazol-3-yl)quinoline], the pIC50 in the assay with GDF8 (setting [1]) and in the assay with TGF-β (setting [2]) was below 6.00 in each case.
Take `Cc1cc(F)c(Cl)cc1-c1nc2n(c1-c1ccc3[nH]ncc3c1)CCC2` [Compound 296, 5-(2-(5-chloro-4-fluoro-2-methylphenyl)-6,7-dihydro-5H-pyrrolo[1,2-a]imidaol-3-yl)-1H-indazole]: the results for the pIC50 with GDF8 (setting [1]) and in the assay with TGF-β (setting [2]) were 6.00 to 7.00 and below 6.00, respectively.
As to `Cc1cc(F)c(Cl)cc1-c1nc2n(c1-c1ccc3ncsc3c1)CCC2` [Compound 297, 6-(2-(5-chloro-4-fluoro-2-methylphenyl)-6,7-dihydro-5H-pyrrolo[1,2-a]imidazol-3-yl)benzo[d]thiazole], the pIC50 in the assay on GDF8 (setting [1]) and in the assay with TGF-β (setting [2]) was 6.00 to 7.00 each time.
For `Cc1cc(F)c(Cl)cc1-c1nc2n(c1-c1ccc3nccnc3c1)CCC2` [Compound 298, 6-(2-(5-chloro-4-fluoro-2-methylphenyl)-6,7-dihydro-5H-pyrrolo[1,2-a]imidazol-3-yl)quinoxaline], the pIC50 with GDF8 (setting [3]) was 6.00 to 7.00; in the assay on TGF-β (setting [4]) it was below 6.00.
For `Cc1cc(F)c(Cl)cc1-c1nc2n(c1-c1ccc3ncccc3c1)CCC2` [Compound 299, 6-(2-(5-chloro-4-fluoro-2-methylphenyl)-6,7-dihydro-5H-pyrrolo[1,2-a]imidazol-3-yl)quinoline], in that order: 6.00 to 7.00 and below 6.00.
On to `Cc1ccc(F)cc1-c1nc2n(c1-c1ccc3[nH]ncc3c1)CCC2` [Compound 300, 5-(2-(5-fluoro-2-methylphenyl)-6,7-dihydro-5H-pyrrolo[1,2-a]imidazol-3-yl)-1H-indazole], for which the pIC50 with GDF8 (setting [3]) and in the assay on TGF-β (setting [4]) was below 6.00 throughout.
As for `Cc1ccc(F)cc1-c1nc2n(c1-c1ccc3ncsc3c1)CCC2` [Compound 301, 6-(2-(5-fluoro-2-methylphenyl)-6,7-dihydro-5H-pyrrolo[1,2-a]imidazol-3-yl)benzo[d]thiazole], the pIC50 was 6.00 to 7.00 with GDF8 (setting [3]) and below 6.00 in the assay with TGF-β (setting [4]).
For the molecule `Cc1ccc(F)cc1-c1nc2n(c1-c1ccc3nccnc3c1)CCC2` [Compound 302, 6-(2-(5-fluoro-2-methylphenyl)-6,7-dihydro-5H-pyrrolo[1,2-a]imidazol-3-yl)quinoxaline], the pIC50 with GDF8 (setting [3]) and with TGF-β (setting [4]) was below 6.00 throughout.
In the case of `Cc1ccc(F)cc1-c1nc2n(c1-c1ccc3ncccc3c1)CCC2` [Compound 303], the pIC50 with GDF8 (setting [1]) and in the assay on TGF-β (setting [2]) was below 6.00 each time.
With `Cc1ccccc1-c1nc2n(c1-c1ccc3[nH]ncc3c1)CCC2` [Compound 304, 5-(2-(o-tolyl)-6,7-dihydro-5H-pyrrolo[1,2-a]imidazol-3-yl)-1H-indazole], the pIC50 in the assay on GDF8 (setting [1]) and with TGF-β (setting [2]) was below 6.00 throughout.
`Cc1ccccc1-c1nc2n(c1-c1ccc3ncsc3c1)CCC2` [Compound 305, 6-(2-(o-tolyl)-6,7-dihydro-5H-pyrrolo[1,2-a]imidazol-3-yl)benzo[d]thiazole]: the pIC50 in the assay on GDF8 (setting [1]) is 6.00 to 7.00; in the assay on TGF-β (setting [2]) it was below 6.00.
On to `Cc1ccccc1-c1nc2n(c1-c1ccc3nccnc3c1)CCC2` [Compound 306, 6-(2-(o-tolyl)-6,7-dihydro-5H-pyrrolo[1,2-a]imidazol-3-yl)quinoxaline], for which the pIC50 in the assay with GDF8 (setting [1]) and in the assay with TGF-β (setting [2]) was below 6.00 throughout.
Turning to `Cc1ccccc1-c1nc2n(c1-c1ccc3ncccc3c1)CCC2` [Compound 307, 6-(2-(o-tolyl)-6,7-dihydro-5H-pyrrolo[1,2-a]imidazol-3-yl)quinoline], the pIC50 in the assay on GDF8 (setting [1]) and with TGF-β (setting [2]) was below 6.00 in each case.
